This is an account of results in article PMC11062894, “Protein-based bandpass filters for controlling cellular signaling with chemical inputs” (Nature Chemical Biology, 2023).

“Also recorded” adds a separate entry of the source.

Test [1] relates to LD3. As to the kind of experiment: SPR drug sensitivity of drug receptor variants (5 µM analyte mixed with 10 µM inhibitor, LD3 immobilized chip). Conditions: for drug resistance to venetoclax (binding response to LD3): 5 µM Bcl2 or variant + 10 µM Venetoclax. The test is classed as binding. The procedure:
Drug IC50 values for disrupting heterodimers were measured on a Biacore 8K device. A 5 µM portion of analyte was mixed with 10 µM of BclXL or Bcl2 inhibitors according to the analyte. The mixtures of analyte and drug were injected onto the LD3 immobilized channel. […]
(§1) Bcl2high-v(2,4,5) measured by SPR. 5 μM of Bcl2 or indicated variants were mixed with 10 μM of […]

Test [2] concerns LD3. In words: SPR assay for protein–protein binding affinities (drug receptor variants over immobilized LD3). Further details: unit not given here. The following applies: Supp Fig 6a. The procedure:
SPR measurements were performed on a Biacore 8K device (GE Healthcare). The mutual designed binder (LD3) was immobilized on a CM5 chip (GE Life Science) as a ligand with the concentration at 5 μg ml^−1 for 120 s contact time in pH 4.5 sodium acetate solutions. Serial dilutions of the analytes (BclXL or Bcl2 and their variants) in HBS-EP buffer (10 mM HEPES, 150 mM NaCl, 3 mM EDTA and 0.005% surfactant P20; GE Life Science) were flowed over the immobilized chips. After each injection cycle, surface regeneration was performed using 10 mM NaOH (pH 11.95). Affinities (Kd) were obtained using a steady binding model of the equilibrium model with Biacore 8K evaluation software. […]
Dissociation constant measurement of BclXLhigh-v(1-3) and LD3. Equilibrium curves are fitted using
BclXLhigh-v1 (purple), BclXLhigh-v2 (blue), […]
Supplementary Figure 6: Binding affinities and drug resistances of Bcl2high-v(2,4,5) assessed by
a) Measurement of dissociation constants for Bcl2high-v(2,4,5) and LD3 interactions. Equilibrium curves
as §1
(In general: In SPR one partner is held on a chip, and binding of the other changes the refractive index at the surface.)

Test [3] concerns GEMS receptors with CBPvene (Bcl2–LD3 and Bcl2high variants), STAT3-driven SEAP in HEK293T cells. In words: GEMS SEAP reporter assay, CBPvene (Bcl2high, LD3-v and Bcl2-v variants) with venetoclax. The test is classed as cell-based. Conditions: Supp Fig 5c; for behavior of Bcl2high variants screened in CBP constructs: venetoclax exceeding 100 nM.

In the case of “BclXL: wild-type BclXL, druglow receptor”, in the test on LD3 [1] (5 µM BclXL or variant + 10 µM A-1155463), the “drug resistance to A-1155463 (binding response to LD3)” value is “completely inhibited”.

Take Bcl2high-v5: Bcl2 variant (D103Y): the “SPR equilibrium binding response to LD3” value in the test with LD3 [2] (head: Venetoclax (nM) 1) was determined as 0.849; with LD3 [2] (head: Venetoclax (nM) 3.9), 3.873; in the test with LD3 [2] (head: Venetoclax (nM) 15.6), 14.2982; with LD3 [2] (head: Venetoclax (nM) 62.5), 37.6477. For the same substance, the “drug resistance to venetoclax (binding response to LD3)” value (shortened to “drug resistance to venetoclax”) in the test with LD3 [1] is “intermediate binding responses”. Also, the “SEAP, screening of Bcl2high variants (raw)” value (shortened to “SEAP, screening … (raw)”) in test [3] (Venetoclax 0) is given as 2.765; in test [3] (Venetoclax 0.0001), 2.523; in test [3] (Venetoclax 0.001), 3.266; in test [3] (Venetoclax 0.01), 2.791; in test [3] (Venetoclax 0.1) it was 1.758; in test [3] (Venetoclax 1) it was 1.638. Besides, the “SEAP, screening … (raw)” value in test [3] (Venetoclax 10) is recorded as 7.093; in test [3] (Venetoclax 100), 33.9111; in test [3] (Venetoclax 1000), 29.4352. The “SEAP, screening of Bcl2high variants, Normalized” value (shortened to “SEAP, screening … Normalized”) is reported as 3.49 in test [3] (Venetoclax 0); 2.743 in test [3] (Venetoclax 0.0001); 5.042 in test [3] (Venetoclax 0.001); 3.572 in test [3] (Venetoclax 0.01); 0.3721 in test [3] (Venetoclax 0.1); 0 in test [3] (Venetoclax 1). Also, the “SEAP, screening … Normalized” value in test [3] (Venetoclax 10) came out at 16.9022; in test [3] (Venetoclax 100), 100; in test [3] (Venetoclax 1000) it was 86.1311. Moreover, the “behavior of Bcl2high variants screened in CBP constructs” value in test [3] is given as “sharp decrease”.

In the case of Bcl2high-v4: Bcl2 variant (G101V), the “SPR equilibrium binding response to LD3” value with LD3 [2] (head: Venetoclax (nM) 1) is on record as 2.1472; in the test on LD3 [2] (head: Venetoclax (nM) 3.9), 10.112; with LD3 [2] (head: Venetoclax (nM) 15.6), 33.8883; with LD3 [2] (head: Venetoclax (nM) 62.5), 70.0059. Besides, the “drug resistance to venetoclax” value in the test with LD3 [1] is “intermediate binding responses; also recorded: more resistant than Bcl2high-v2”. Besides, the “SEAP, screening … (raw)” value is given as 6.603 in test [3] (Venetoclax 0); 4.145 in test [3] (Venetoclax 0.0001); 8.202 in test [3] (Venetoclax 0.001); 7.174 in test [3] (Venetoclax 0.01); 7.666 in test [3] (Venetoclax 0.1); 5.264 in test [3] (Venetoclax 1). The figures for the “SEAP, screening … (raw)” value in test [3] (Venetoclax 10), in test [3] (Venetoclax 100) and in test [3] (Venetoclax 1000) were 24.5053, 94.7979 and 68.7379, respectively. In addition, the “SEAP, screening … Normalized” value is 2.711 in test [3] (Venetoclax 0); 0 in test [3] (Venetoclax 0.0001); 4.476 in test [3] (Venetoclax 0.001); 3.342 in test [3] (Venetoclax 0.01); 3.884 in test [3] (Venetoclax 0.1); 1.235 in test [3] (Venetoclax 1). The figures for the “SEAP, screening … Normalized” value in test [3] (Venetoclax 10), in test [3] (Venetoclax 100) and in test [3] (Venetoclax 1000) were 22.4596, 100 and 71.253, respectively. For the same substance, in test [3], the “behavior of Bcl2high variants screened in CBP constructs” value is recorded as “sharp decrease”.

Regarding Bcl2: wild-type Bcl2, druglow receptor, in the test with LD3 [1], the “drug resistance to venetoclax” value is on record as “completely inhibited”.

On to Bcl2high-v7: Bcl2 variant (D103E), for which the “SEAP, screening … (raw)” value in test [3] (Venetoclax 0) was 6.691; in test [3] (Venetoclax 0.0001), 7.426; in test [3] (Venetoclax 0.001), 7.62; in test [3] (Venetoclax 0.01), 12.5658; in test [3] (Venetoclax 0.1), 10.093; in test [3] (Venetoclax 1), 14.5573. For the same substance, the “SEAP, screening … (raw)” value is recorded as 26.197 in test [3] (Venetoclax 10), 97.9682 in test [3] (Venetoclax 100) and 108.628 in test [3] (Venetoclax 1000). The “SEAP, screening … Normalized” value came to 0 in test [3] (Venetoclax 0); 0.7213 in test [3] (Venetoclax 0.0001); 0.9112 in test [3] (Venetoclax 0.001); 5.763 in test [3] (Venetoclax 0.01); 3.337 in test [3] (Venetoclax 0.1); 7.717 in test [3] (Venetoclax 1). In addition, the “SEAP, screening … Normalized” value came out at 19.1352 in test [3] (Venetoclax 10), 89.5427 in test [3] (Venetoclax 100) and 100 in test [3] (Venetoclax 1000).
